# Reference: patent US9907859B2 (priority 2010, dated 2018)
# Like-named read-outs stand apart in the source and are kept apart here.
# How the values were obtained:
# [1] = test system: ECTV; conditions: in vivo; cited from earlier work
# [2] = test system: VV; conditions: in vivo; cited from earlier work
# [3] = physchem; conditions: 37 °C, aqueous with cosolvent or surfactant or cyclodextrin, range of ST-246 solubilized by cyclodextrin
# [4] = test system: variola viruses; conditions: in vitro, read-out: 50% effective concentration [EC50], inhibition of virus replication; cited from earlier work
# [5] = physchem; conditions: 70 °C, aqueous with cosolvent or surfactant or cyclodextrin
# [6] = test system: CV; conditions: in vivo; cited from earlier work
# [7] = both, New Zealand White, rabbit, in vivo, po, 100 mg/kg
# [8] = in vivo; conditions: both, cynomolgus monkey, po; for AUC(0-inf): AUCINF—obs
# [9] = female, CD-1, mouse, in vivo; for Cmax: iv
# [10] = in vivo; conditions: New Zealand White, rabbit, po, 100 mg/kg
# [11] = test system: ectromelia virus (ECTV); conditions: read-out: 50% effective concentration [EC50], inhibition of virus replication; cited from earlier work
# [12] = test system: cowpox virus (CV); conditions: in vitro, read-out: 50% effective concentration [EC50], inhibition of virus replication; cited from earlier work
# [13] = rabbit, in vivo
# [14] = test system: monkeypox; conditions: in vitro, read-out: 50% effective concentration [EC50], inhibition of virus replication; cited from earlier work
# [15] = in vivo; conditions: mouse, po
smiles,measurement,setting,value
"O=C(NN1C(=O)C2C3C=CC(C4CC34)C2C1=O)c1ccc(C(F)(F)F)cc1 (stereo not drawn) [ST-246, 4-trifluoromethyl-N-(3,3a,4,4a,5,5a,6,6a-octahydro-1,3-dioxo-4,6-ethenocycloprop[f]isoindol-2(1H)-yl)-benzamide]",preventing or reducing mortality,[1],highly effective in preventing or reducing mortality
same,toxicity in animal model,[1],nontoxic
same,preventing or reducing mortality,[2],highly effective in preventing or reducing mortality
same,toxicity in animal model,[2],nontoxic
same,solubility,[3],1.5 to 11 mg/mL
same,EC50,[4],≤ 70 nM
same,solubility,[5],21.2 mg/mL
same,preventing or reducing mortality,[6],highly effective in preventing or reducing mortality
same,toxicity in animal model,[6],nontoxic
same,AUC0-24 hr,[7],19.8 ± 16.6 µg·h/mL
same,CL/F,[8]; 0.3 mg/kg,15.3 mL/min/kg
same,Tmax,[8]; 0.3 mg/kg,2.5 h
same,half-life,[8]; 0.3 mg/kg,4 ± 1.3 h
same,AUC(0-inf),[8]; 0.3 mg/kg,0.38 ± 0.149 µg·h/mL
same,Cmax,[8]; 0.3 mg/kg,53.8 ± 27.5 ng/mL
same,AUC(0-t),[8]; 3 mg/kg,3.86 ± 0.862 µg·h/mL
same,CL/F,[8]; 3 mg/kg,11.2 mL/min/kg
same,Tmax,[8]; 3 mg/kg,3.3 h
same,half-life,[8]; 3 mg/kg,9.9 ± 6 h
same,AUC(0-inf),[8]; 3 mg/kg,4.53 ± 0.49 µg·h/mL
same,Cmax,[8]; 3 mg/kg,496 ± 145 ng/mL
same,AUC(0-t),[8]; 10 mg/kg,10.3 ± 3.06 µg·h/mL
same,CL/F,[8]; 10 mg/kg,15.3 mL/min/kg
same,Tmax,[8]; 10 mg/kg,3.8 h
same,half-life,[8]; 10 mg/kg,7 ± 0.9 h
same,AUC(0-inf),[8]; 10 mg/kg,11.8 ± 3.67 µg·h/mL
same,Cmax,[8]; 10 mg/kg,1080 ± 279 ng/mL
same,AUC(0-t),[8]; 20 mg/kg,13.4 ± 8.02 µg·h/mL
same,CL/F,[8]; 20 mg/kg,20.1 mL/min/kg
same,Tmax,[8]; 20 mg/kg,3.2 h
same,half-life,[8]; 20 mg/kg,7.2 ± 2.3 h
same,AUC(0-inf),[8]; 20 mg/kg,15.5 ± 9.15 µg·h/mL
same,Cmax,[8]; 20 mg/kg,1480 ± 864 ng/mL
same,AUC(0-t),[8]; 30 mg/kg,20.5 ± 8.05 µg·h/mL
same,CL/F,[8]; 30 mg/kg,16.5 mL/min/kg
same,Tmax,[8]; 30 mg/kg,3.6 h
same,half-life,[8]; 30 mg/kg,17.7 ± 13.8 h
same,AUC(0-inf),[8]; 30 mg/kg,31.9 ± 7.36 µg·h/mL
same,Cmax,[8]; 30 mg/kg,1990 ± 873 ng/mL
same,average plasma concentration at the end of infusion,[9]; 75 mg/kg,"238, 333 ng/mL"
same,Cmax,[9]; 10 mg/kg,64000 ng/mL
same,Cmax,[9]; 30 mg/kg,147333 ng/mL
same,Cmax,[9]; 75 mg/kg,238000 ng/mL
same,AUC(0-t),[10]; both,19.8 µg·h/mL
same,CL/F,[10]; both,120 mL/min/kg
same,Cmax,[10]; both,2860 ng/mL
same,half-life,[10]; both,3.7 h
same,AUC(0-t),[10]; female,8.18 µg·h/mL
same,Cmax,[10]; female,1230 ng/mL
same,half-life,[10]; female,1.3 h
same,AUC(0-t),[10]; male,26.4 µg·h/mL
same,Cmax,[10]; male,4480 ng/mL
same,half-life,[10]; male,6 h
same,EC50,[11],≤ 70 nM
same,EC50,[12],≤ 70 nM
same,time to full recovery,"[13]; both, New Zealand White, iv, 60 mg/kg",30 to 60 min
same,tolerability,[13],well-tolerated
same,tolerability,[13]; 3 mg/kg,well-tolerated
same,tolerability,"[13]; iv, 1 mg/kg",well tolerated
same,clinical signs,"[13]; iv, 60 mg/kg","lethargy, labored breathing and narcosis"
same,EC50,[14],≤ 70 nM
same,half-life,"[15]; female, BALB/c",2.2 to 4.5 h
same,CL/F,"[15]; female, BALB/c, 30 mg/kg",1.7 mL/min/kg
same,half-life,"[15]; female, BALB/c, 30 mg/kg",2.4 h
same,AUC(0-t),"[15]; female, BALB/c, 30 mg/kg, AUC0-24",292 µg·h/mL
same,AUC(0-t),"[15]; female, BALB/c, 30 mg/kg, AUC0-24 hr",292 µg·h/mL
same,Cmax,"[15]; female, BALB/c, 30 mg/kg",37500 ng/mL
same,CL/F,"[15]; female, BALB/c, 100 mg/kg",3.65 mL/min/kg
same,half-life,"[15]; female, BALB/c, 100 mg/kg",2.2 h
same,AUC(0-t),"[15]; female, BALB/c, 100 mg/kg, AUC0-24 hr",456 µg·h/mL
same,Cmax,"[15]; female, BALB/c, 100 mg/kg",43800 ng/mL
same,CL/F,"[15]; female, BALB/c, 300 mg/kg",7.3 mL/min/kg
same,half-life,"[15]; female, BALB/c, 300 mg/kg",4.1 h
same,AUC(0-t),"[15]; female, BALB/c, 300 mg/kg, AUC0-24 hr",669 µg·h/mL
same,Cmax,"[15]; female, BALB/c, 300 mg/kg",64000 ng/mL
same,CL/F,"[15]; female, BALB/c, 1000 mg/kg",18.9 mL/min/kg
same,half-life,"[15]; female, BALB/c, 1000 mg/kg",4.5 h
same,AUC(0-t),"[15]; female, BALB/c, 1000 mg/kg, AUC0-24 hr",852 µg·h/mL
same,Cmax,"[15]; female, BALB/c, 1000 mg/kg",66000 ng/mL
same,AUC(0-t),"[15]; female, 100 mg/kg, AUC0-24",456 µg·h/mL
same,AUC(0-t),"[15]; female, 300 mg/kg, AUC0-24",669 µg·h/mL
same,Cmax,"[15]; female, 300 mg/kg",64000 ng/mL
same,AUC(0-t),"[15]; female, 500 mg/kg, AUC0-24",515 µg·h/mL
same,Cmax,"[15]; female, 500 mg/kg",56600 ng/mL
same,AUC(0-t),"[15]; female, 600 mg/kg, AUC0-24",854 µg·h/mL
same,Cmax,"[15]; female, 600 mg/kg",95300 ng/mL
same,Cmax,"[15]; female, 1000 mg/kg",66300 ng/mL
same,AUC(0-t),"[15]; female, 2000 mg/kg, AUC0-24",607 µg·h/mL
same,Cmax,"[15]; female, 2000 mg/kg",69900 ng/mL
same,AUC(0-t),"[15]; male, BALB/c, 30 mg/kg, AUC0-24",241 µg·h/mL
same,Cmax,"[15]; male, BALB/c, 30 mg/kg",30400 ng/mL
same,Cmax,"[15]; male, BALB/c, 100 mg/kg",38400 ng/mL
same,AUC(0-t),"[15]; male, 100 mg/kg, AUC0-24",343 µg·h/mL
same,AUC(0-t),"[15]; male, 300 mg/kg, AUC0-24",484 µg·h/mL
same,Cmax,"[15]; male, 300 mg/kg",48400 ng/mL
same,AUC(0-t),"[15]; male, 500 mg/kg, AUC0-24",413 µg·h/mL
same,Cmax,"[15]; male, 500 mg/kg",36600 ng/mL
same,AUC(0-t),"[15]; male, 600 mg/kg, AUC0-24",765 µg·h/mL
same,Cmax,"[15]; male, 600 mg/kg",82800 ng/mL
same,Cmax,"[15]; male, 1000 mg/kg",61100 ng/mL
same,AUC(0-t),"[15]; male, 2000 mg/kg, AUC0-24",508 µg·h/mL
same,Cmax,"[15]; male, 2000 mg/kg",50900 ng/mL
